Test results published in patent US20250171556A1, “MULTISPECIFIC ANTIBODIES FOR TREATING CD47-ASSOCIATED DISEASES” (Virtuoso BINco, Inc., priority 2021, published 2025).

How the values were obtained:
Hep3B2.1-7 tumor cells = test: Hep3B2.1-7 hepatocellular carcinoma xenograft model; assay type: in vivo, mouse; details: CD47×EpCAM_v5 20 mg/kg iv weekly, 4 doses, irinotecan 15 mg/kg ip twice per week
Procedure: Hep3B2.1-7 tumor cells were cultured in EMEM medium supplemented with 10% FBS at 37° C. in an atmosphere containing 5% CO2 in air. Female Balb/c nude mice (Shanghai Lingchang Laboratory Animal Technology Co., Ltd.) of 6-8 weeks in age were inoculated subcutaneously with 8×10^6 cells in 0.1 mL of PBS for tumor development. Once the average tumor volume reached approximately 150-200 mm^3, the animals were randomized to 6 animals per group and started treatment. Irinotecan was administered through intraperitoneal injection twice per week at a dose of 15 mg/kg for a total of 4 doses. CD47×EpCAM_v5 bispecific antibody was administered through bolus tail vein injection at 20 mg/kg weekly for a total of 4 doses. Combination groups followed the same dosing schedule and route of administration as their corresponding monotherapy groups. Tumor volume was measured twice weekly.

DLD-1 tumor cells = test: DLD-1 colorectal cancer xenograft model; assay type: in vivo, mouse; details: 5 doses, irinotecan 30 mg/kg ip twice per week
Procedure: DLD-1 tumor cells were cultured in RPMI 1640 medium supplemented with 10% FBS at 37° C. in an atmosphere of 5% CO2 in air. Female Balb/c nude mice (Shanghai Lingchang Laboratory Animal Technology Co., Ltd.) of 6-8 weeks in age were inoculated subcutaneously with 5×10^6 cells in 0.1 mL PBS for tumor development. Once the average tumor volume reached approximately 150-200 mm^3, the animals were randomized to 6 animals per group and started treatment. Oxaliplatin and 5-fluorouracil (5-FU) were administered through intraperitoneal injection three times per week at a dose of 8 mg/kg and 35 mg/kg, respectively. A total of 4 doses of oxaliplatin and 5 doses of 5-FU were given. Irinotecan was administered through intraperitoneal injection twice per week at a dose of 30 mg/kg for a total of 6 doses. CD47×EpCAM_v5 bispecific antibody was administered through bolus tail vein injection at 20 mg/kg weekly for a total of 5 doses. For the combination groups, the route and dosing schedule were the same as in the single agent treatment groups. Tumor volume was measured twice weekly.
DLD-1 xenograft model was established as described in Example 13. Treatment was initiated once the average tumor volume reached approximately 150-200 mm^3. Irinotecan was administered through intraperitoneal injection twice per week at a dose of 30 mg/kg for a total of 5 doses. […]

CCc1c2c(nc3ccc(OC(=O)N4CCC(N5CCCCC5)CC4)cc13)-c1cc3c(c(=O)n1C2)COC(=O)[C@]3(O)CC [irinotecan, reference compound]
Tumor growth in Hep3B2.1-7 model, single agent (Hep3B2.1-7 tumor cells): slowed tumor growth but did not inhibit it | Tumor growth in DLD-1 model, single agent (Example 13) (DLD-1 tumor cells; CD47×EpCAM_v5 20 mg/kg iv weekly, 6 doses): not very effective | Tumor growth in DLD-1 model, single agent (Example 14) (DLD-1 tumor cells; antibodies 20 mg/kg iv weekly): partial tumor growth inhibition
